Data set [1] in a line: Systemic administration of a high dose to normal mice for 4 weeks (autoimmune reactions). The class given is in vivo. The method, then: [FIG. 2-2] Continuation of FIG. 2. H to M: Compound 1 (100 mg/kg) or vehicle control (0.5% CMC-Na) was orally administered to 7-week-old female C57BL/6N mice twice daily for 7 continuous days (J and K) or once daily for 4 weeks (I, L, and M), while αPD-L1 antibody or isotype control (isotype IgG) was intraperitoneally injected once weekly. The experimental scheme is indicated in (H). Body weights (n=6/group) were monitored weekly (I). Mice were sacrificed on day 7 (n=5/group) to analyze peripheral blood (J) and spleen (K).
[FIG. 2-3] Continuation of FIG. 2. Land M: Mice were sacrificed on day 28 (n=3/group) to perform CD8 immunohistochemical staining (IHC). Scale bars represent 50 μm. The number of CD8+ cells was counted using ImageJ software in three areas of each tissue. All data are shown as the mean±SEM. Experiments were performed at least twice for B to G, or once for others. *** p<0.001 vs. vehicle control was determined using one-way ANOVA followed by Bonferroni's multiple comparisons test.
Next, to determine whether the enhancement of cancer immunity by co-administration of Compound 1 and αPD-L1 raises concerns regarding autoimmune reactions, a high dose of Compound 1 was systemically administered to normal mice for 4 weeks (FIG. 2-2H).

Data set [2] deals with various murine cancer cell lines (LLC, Pan02, WEHI3, CT26, EG7, B16, MC38). Description: RNA-seq analysis of splice-neoantigen producing events in various murine cancer cell lines. The class given is cell-based. To be noted: LLC, Pan02, WEHI3, CT26, EG7, B16. How it is done:
[FIG. 5-2] Continuation of FIG. 5. D and E: RT-PCR analysis for splice-neoantigen coding forms (splice-NA forms) in MC38 cells treated with 10 µM Compound 1 or vehicle control (0.1% DMSO) for 6 hours. Actb served as a loading control. * represents p<0.05, ** represents p<0.01, and *** represents p<0.001. F: Splice-neoantigen producing rates calculated from RNA-seq data (n=3 biological replicates) are indicated as the APSI (Compound 1-DMSO). All data are shown as the mean±SEM. All experiments were performed at least twice. Statistical significance was determined using unpaired Student's t-test for (B) and (E).
Then, whether the Compound 1-induced splice-neoantigens are shared across cancer type was examined using murine lung carcinoma LLC, pancreatic ductal adenocarcinoma Pan02, leukemia WEHI3, colorectal adenocarcinoma CT26, lymphoma EG7, and skin melanoma B16 cells.
The effects of Compound 2 on RNA splicing events (splicing alterations) producing the aforementioned six splice-neoantigens in various murine cancer cell lines were investigated through RNA-Seq analysis in the same manner as in FIG. 5-2F, except that Compound 1 was replaced with Compound 2 (FIG. 8).

The subject of data set [3] is splenocytes (CD8^+ and CD4^+ T cells). Description: Ex vivo splenocyte culture assay (antigen-independent T cell activation). The class given is cell-based, mice. As to conditions: 24 hours.
Data set [4] deals with B2m-knockout MC38 clones. Description: B2m KO MC38 clones and negative control clone intradermally inoculated into mice. The class given is in vivo. The method, then:
[FIG. 3-2] Continuation of FIG. 3. G to J: The experimental schema (G), tumor volumes (H), flow cytometric images (I), as well as quantitative data (J) of tumor-infiltrating CD8^+ T cells on day 23 are shown (n=5 to 9/group). * represents p<0.05, and ** represents p<0.01. K: Tumor volumes of mice (n=5 to 6/group). Mice were intraperitoneally injected with 35 μg of αPD-L1 antibody or isotype control (isotype IgG) once weekly on days 9 and 16 for NC and days 11 and 18 for B2M KO #2. * represents p<0.05. All data are shown as the mean±SEM. Experiments were performed at least twice for A to F, or once for others. Statistical significance was determined using unpaired Student's t-test for (H), (J), and (K) and one-way ANOVA followed by Bonferroni's multiple comparisons test for (D) and (F).
Furthermore, whether neoantigen presentation in cancer cells is important for the antitumor effects of Compound 1 was investigated by establishing a CRISPR-Cas9-mediated knockout of B2m, an essential component of MHC class I, using MC38 cells. […] It was further confirmed that surface H-2K^b on these cells disappeared (FIGS. 3-1C and 3-1D) without affecting IFN-γ signaling (FIG. 3-1A) and the expression of PD-L1 on the cell surface (FIGS. 3-1E and 3-1F).
Then, these B2m KO MC38 clones were intradermally inoculated into immunodeficient mice, and the antitumor effects of Compound 1 were evaluated (FIG. 3-2G).

The test system of data set [5] is IKBKAP gene with IVS20+6T>C mutation. As to conditions: in vitro and in vivo; cited from earlier work.
Data set [6] has as its system MC38 cells. Description: Cell proliferation and cell death, CCK-8 and LDH assays. It counts as cell-based, murine. To be noted: concentrations effective in vivo. The method, then:
[FIG. 1-1] FIG. 1. Chemical activation of SRSFs exerts antitumor effects in a CD8^+ T cell-dependent manner and potentiates the response to PD-1 blockade. A: Experimental procedure involving an MC38 tumor-bearing model. B and C: Tumor volumes (B) and survival (C) are shown (n=12/group). ** represents p<0.01; and *** represents p<0.001. D and E: MC38 cells were treated with Compound 1 for 72 hours (D) or for the indicated time (E). Cell proliferation and cell death were measured using CCK-8 and LDH assays, respectively (n=3/group). F and G: Representative images (F) and quantitative data (G) of flow cytometry are shown (n=[…]/group). * represents p<0.05. H: Experimental procedure of antibody injection in an MC38 tumor-bearing model.
First, in vivo activity was assessed using syngeneic MC38 tumors intradermally transplanted into […] mice (FIG. 1-1A).

Data set [7] relates to MC38 cells. Description: IFN-γ signaling and expression of MHC class I components and PD-L1 in MC38 cells. It counts as cell-based, murine. As to conditions: for decrease in PD-L1 expression on the cell surface / increase in H2-K^b expression: 72 hours. An excerpt: MHC class I expressed in cancer cells is critical for neoantigen presentation, which is indispensable for CD8^+ T cell-dependent immune surveillance and tumor killing. To investigate whether Compound 1 modulates the neoantigen presentation pathway, first, the effects of Compound 1 on IFN-γ signaling and the expression of MHC class I components, including […] (B2M) and H2-K^b in MC38 cells, were examined because CD8^+ T cell-secreted IFN-γ is a major inducer of MHC class I components. […] In contrast, any changes in the expression of PD-L1 were not detected in host dendritic cells or macrophages. […] However, these alterations were likely not the functional mechanisms through which Compound 1 exerts its antitumor effects (FIGS. 1-2O and 1-2P), as enhanced antitumor effects of Compound 1 were observed when co-administered with αPD-L1.

Molecules are shown by their SMILES.

For `Clc1nc(NCc2ccco2)c2[nH]cnc2n1` [Compound 1], the “leukocyte numbers and biochemical parameters in peripheral blood” value in data set [1] (data not shown) is “no alterations were observed”. In addition, the “spleen weight, leukocyte numbers, and expression of T cell activation markers in spleen and peripheral blood” value in data set [1] (day 7, with or without αPD-L1) was “no effect”. For the same compound, the “histological analysis of non-malignant tissues: CD8^+ T cells, inflammatory lesions” value in data set [1] (day 28, irrespective of co-treatment with αPD-L1) is recorded as “did not result in the accumulation of CD8^+ T cells or appearance of inflammatory lesions”. Besides, the body weight changes result in data set [1] (throughout 4 weeks, with or without αPD-L1) was “comparable”. For the same compound, the “induced splice alterations shared across cancer type” value in data set [2] was “shared in most of the examined cells”. In data set [3] (flow cytometry), the “CD44^+ and CD69^+ marker expressions in CD8^+ and CD4^+ T cells” value was “no such effects”. In addition, in data set [3] (supernatant), the “secretion of inflammatory cytokines IFN-γ and TNF-α” value is “not observed”. Besides, the “antitumor effects (tumor growth)” value in data set [4] (B2m KO clones) is reported as “completely abolished”; in data set [4] (negative control clone), “suppressed tumor growth”. The “number of CD8^+ T cells in tumors” value in data set [4] (B2m KO-derived tumors) was “no longer inducible”. Further, the “aberrant splicing in the IKBKAP gene” value in data set [5] was “able to improve”. The “cytotoxicity or cytostasis in vitro” value in data set [6] is “not associated with cytotoxicity or cytostasis”. The “phosphorylation of STAT1 and STAT3 and expression of B2M protein” value in data set [7] is “no such effects”. For the same compound, the “decrease in PD-L1 expression on the cell surface” value in data set [7] (IFN-γ 0 ng/ml) came out at 3.8%; in data set [7] (IFN-γ 0.1 ng/ml), 3.2%; in data set [7] (IFN-γ 1 ng/ml), 26.1%. In addition, the “increase in H2-K^b expression” value in data set [7] (IFN-γ 0 ng/ml) is recorded as 11.1%; in data set [7] (IFN-γ 0.1 ng/ml), 12.4%.

The record behind these values is US20240423988A1, “Improvement of Tumor Immunogenicity by Means of Splicing-Controlling Compound” (Kyoto University, priority 2021, published 2024).
